{"source": "patent US6525089B1", "about": "“Pharmaceutical composition containing decursin” (Binex Co., Ltd., priority 1998, dated 2003)", "key": {"U-937 cells [1]": {"test_system": "U-937 cells", "assay": "Growth inhibition test (trypan blue exclusion)", "assay_type": "cell-based, human", "settings": "4 days (96 hours)", "experimental": "U-937 cells, optioned from Korea Cell Line Bank, was cultured in RPMI 1640 medium (Sigma Co., R-6504) supplemented with 10% fetal bovine serum (FBS). The medium was exchanged every 5 day by 70%. U-937 cells were inoculated into a cell culture dish at concentration of 2×10^5 cells/ml. Then decursin added into the dish at concentration of 10^−8˜10^−6M, then the cells were cultured for 4 days. Trypan blue exclusion test was performed to determine the number of live cells using a hemacytometer, and the percentage of cancer-cell growth inhibition was calculated. Then, the differentiation was induced by treating with 10^−2M diluted ethanol solution containing various amount of decursin in the medium."}, "U-937 cells [2]": {"test_system": "U-937 cells", "assay": "NBT reduction test", "assay_type": "cell-based, human", "settings": "1 × 10^−7M, incubated 4 days", "experimental": "(§1) U-937 cells were plated on a cell culture dish at a concentration of 2×10^5 cells/ml in a medium containing 10^−7M decursin and incubated in a 5% CO2 incubator at 37° C.\nIn the nitrobluetetrazolium (NBT) reduction test, cell solution (about 1×10^6 cells/ml) was well stirred and pelleted by centrifugation at 2000 rpm for 5 minutes. The pellets were suspended in 0.5 ml of medium, followed by the addition of a mixing solution (0.5 ml) containing 10^−6M formyl-methionine leucine phenylalanine (fMLP) and NBT 1.0 mg/DPBSml (1:9). The mixture was incubated at 37° C. for 30 minutes. The reaction was stopped in ice bath and centrifuged at 2000 rpm for 5 minutes. The supernatant was removed and then 200 μl of DPBS was added. The solution was lightly swayed and checked under a microscope to observe a minimum number of 200 cells. The number of NBT (+) cells was calculated by percentage.\nThe differentiation was investigated by using the fact that the differentiated leukocyte cells may generate superoxide anion by stimulation. […] The cultured mixture, which was reacted with superoxide, was reduced to form a precipitate. Then NBT was added to the precipitate (Table 7)."}, "U-937 cells [3]": {"test_system": "U-937 cells", "assay": "Phagocytosis test", "assay_type": "cell-based, human", "settings": "1 × 10^−7M, incubated 4 days", "experimental": "as §1\nIn the phagocytosis test, 10^6 cells were well stirred and pelleted by centrifugation at 2000 rpm for 5 minutes. 1 ml of 0.2% serum free medium solution in polystyrene particle were added to the pellets, swayed and incubated at 37° C. for 4 hours. After being washed with phosphate buffered saline (PBS) three times, cell pellets were harvested and then about 200 μl of DPBS was added. The solution was lightly swayed and checked under a microscope to observe a minimum number of 200 cells. The number of cells containing the particles was calculated by percentage.\nThe results of phagocytosis test designed to assess the functional change according to differentiation of U-937 cells was shown in the following Table 8."}, "U-937 cells [4]": {"test_system": "U-937 cells", "assay": "Esterase activity test: α-naphthyl acetate esterase", "assay_type": "cell-based, human", "settings": "percentage of cells showing activity", "experimental": "To determine α-naphthyl acetate esterase activity in the esterase activity test, the cultured solution of U-937 cells was pelleted by centrifugation at 2000 rpm for 5 minutes, followed by the addition of 100 μl PBS to prepare a cell-concentrated solution. A drop of the cell solution was put on a slide glass and dried for more than 1 hour. Then 40 ml of deionized water was preheated at 37° C. 1 ml of […] solution was mixed with 1 ml of Fast Blue BB base solution and left for 2 minutes. The mixture, being turned to yellow color with thick brown, was added to 40 ml of the preheated deionized water. After the addition of 5 ml of TRIZMAL TM 7.6 buffer solution (Sigma Co. 870-2) and 1 ml of α-naphthyl acetate solution, the resulting solution, which was turned to green color, was poured into a petri dish. The cells on a slide glass were fixed with citrate-acetone-formaldehyde solution (CAF solution) at room temperature. The cells were soaked in the previously prepared solution and incubated at 37° C. for 30 minutes at a dark place. The cells were completely washed with deionized water for more than 2 minutes and counterstained with hematoxylin solution for 2 minutes, washed with tap water and dried in the air. After completely dried, the cells were observed under a microscope to determine the blackish cell numbers.\n(§2) Thus it was considered that the cells were differentiated into macrophage.like cells by the action of decursin."}, "U-937 cells [5]": {"test_system": "U-937 cells", "assay": "Esterase activity test: naphthol AS-D chloroacetate esterase", "assay_type": "cell-based, human", "settings": "percentage of cells showing activity", "experimental": "To determine naphthol AS-D chloroacetate esterase activity, the cultured solution of U-937 cells was pelleted by centrifugation at 2000 rpm for 5 minutes, followed by the addition of 100 μl PBS to prepare a cell-concentrated solution. A drop of the cell solution was put on a slide glass and dried for more than 1 hour. Then 40 ml of deionized water was preheated at 37° C. 1 ml of […] solution was mixed with 1 ml of Fast Red Violet LB base solution and left for 2 minutes. The mixture was added to 40 ml of preheated deionized water. After the addition of 5 ml of TRIZMAL TM 6.3) buffer solution (Sigma Co. T-3128) and 1 ml of naphthol AS-D chloroacetate solution, the resulting solution, which was turned to red color was poured on a petri dish. The cells on a slide glass were fixed with citrate-acetone-formaldehyde solution, (CAF solution) at room temperature. The cells were soaked in the previously prepared solution and incubated at 37° C. for 30 minutes at a dark place. The cells were completely washed with deionized water for more than 2 minutes and counterstained with hematoxylin solution for 2 minutes, washed with tap water and dried in the air. After completely dried, the cells were observed under a microscope to calculate the reddish cell numbers by percentage.\nas §2"}, "ICR mice [6]": {"test_system": "ICR mice", "assay": "BUN and MDA in blood and MDA in renal tissue, alloxan-treated mice", "assay_type": "in vivo", "settings": "alloxan 75 mg/kg i.v., saline for 10 days", "experimental": "(§3) 2 days after ICR mice were given alloxan (75 mg/kg, i.v.), their glucose levels at fasting were measured to select high-glucose mice. The high-glucose mice were divided into two groups; physiological saline solution was given to one group, while decursin was orally administered to the other group at a dose of 50 mg/kg for 10 days. The alloxan-free group was also orally given physiological saline solution for 10 days. The body weighs were checked periodically, together with urinary tests. To isolate their sera and kidney, mice were slightly anesthetized with ether and their abdomens were dissected. The blood samples were collected from heart to isolate the sera. The kidney was perfused with 0.9% NaCl and isolated after removal of the blood. Then the weight of right kidney was measured. Further, to measure the protein amount from the kidney tissues, these tissues were assayed according to the Bradford method using Bio-Rad protein assay kit in the presence of bovine serum albumin as a reference standard. To measure the MDA in the kidney tissues, 0.4 ml of 10% sodium dodecylsulfate was added to 0.5 ml of 10% kidney-tissue homogenization solution and left in water bath at 37° C. for 30 minutes; With the subsequent addition of 0.1N-HCl (2 ml) and 0.67% TBA (1 ml), the mixture was voltexed and left in boiling water bath for 30 minutes. The mixture was further cooled in ice bath for 2˜3 minutes to stop the reaction. Then 2 ml of n-butanol was added to the mixture, stirred well and centrifuged at 3000 rpm for 10 minutes. The supernatant was collected to measure the absorbance at 532 nm. 10 μg/ml tetraethoxypropane (TEP) was employed as a reference standard. To measure the MDA in sera, 0.8% thiobarbituric acid (TBA) was added to 0.5 ml of sera and left in boiling water bath for 30 minutes. The mixture was further cooled in ice bath for 2˜3 minutes to stop the reaction. The supernatant was collected to measure the absorbance at 532 nm. 10 μg/ml TEP was employed as a reference standard.\nMice were orally given decursin at a dose of 50 mg/kg for 10 days continuously. Then various parameters such as BUN and MDA in the blood as a marker of renal failure were measured, together with urinary test. When […] (table 4), the BUN value of single alloxan-treated group, 17.4±3.7 mg/dl was recovered to the normal level (4.8±0.6 mg/dl) by the treatment of decursin. The MDA value of single alloxan-treated group, 0.51±0.07, was reduced to 0.36±0.03 by the treatment of decursin, which was similar to a normal control group. Thus it was noted that the damage in the kidney was completely recovered. Since the reduction of both MDA values in the blood and kidney tissues may be clinically reasonable and desirable, the MDA value in the kidney tissues was measured. As a result, the MDA value in the kidney tissues of a single alloxan-treated group, 13.24±5.93, was reduced to 5.63±0.99 by the treatment of decursin, which was lower than that of normal control group (8.44±1.01)."}, "ICR mice [7]": {"test_system": "ICR mice", "assay": "Urinary test, alloxan-treated mice", "assay_type": "in vivo", "settings": "Alloxan group", "experimental": "as §3"}}, "data": [{"smiles": "C=C1CC[C@H](O)C/C1=C/C=C1\\CCC[C@]2(C)[C@@H]([C@H](C)CCCC(C)C)CC[C@@H]12", "note": "[Vitamin D3, reference compound]", "values": [{"measurement": "Growth inhibition rate (%)", "setting": "U-937 cells [1]; 1 × 10^−6M", "result": "54.0 ± 6.7", "unit": "%"}, {"measurement": "Growth inhibition rate (%)", "setting": "U-937 cells [1]; 1 × 10^−7M", "result": "42.5 ± 6.4", "unit": "%"}, {"measurement": "Growth inhibition rate (%)", "setting": "U-937 cells [1]; 1 × 10^−8M", "result": "26.0 ± 5.7", "unit": "%"}, {"measurement": "Growth inhibition rate (%)", "setting": "U-937 cells [1]; 5 × 10^−7M", "result": "48.0 ± 6.0", "unit": "%"}, {"measurement": "Growth inhibition rate (%)", "setting": "U-937 cells [1]; 5 × 10^−8M", "result": "33.5 ± 0.7", "unit": "%"}, {"measurement": "NBT reduction test: positive cells", "setting": "U-937 cells [2]", "result": "39.0 ± 2.1", "unit": "%"}, {"measurement": "NBT reduction test: positive cells", "setting": "U-937 cells [2]; listed as vitamin D3", "result": 39, "unit": "%"}, {"measurement": "Phagocytosis test: cells showing phagocytosis activity", "setting": "U-937 cells [3]", "result": "25.8 ± 1.3", "unit": "%"}, {"measurement": "Phagocytosis test: cells showing phagocytosis activity", "setting": "U-937 cells [3]; listed as vitamin D3", "result": 25.8, "unit": "%"}, {"measurement": "α-Naphtylacetate esterase Activity (%)", "setting": "U-937 cells [4]", "result": "79.3 ± 4.5", "unit": "%"}, {"measurement": "α-Naphtylacetate esterase Activity (%)", "setting": "U-937 cells [4]; listed as vitamin D3", "result": 80, "unit": "%"}, {"measurement": "Naphtol AS-D chloroacetate esterase Activity (%)", "setting": "U-937 cells [5]", "result": 0.0, "unit": "%"}]}, {"smiles": "O=C1NC(=O)C(=O)C(=O)N1", "note": "[alloxan]", "values": [{"measurement": "BUN", "setting": "ICR mice [6]", "result": "17.4 ± 3.7", "unit": "mg/dL"}, {"measurement": "MDA in blood", "setting": "ICR mice [6]", "result": "0.51 ± 0.07", "unit": "µg/mL"}, {"measurement": "MDA in renal tissue", "setting": "ICR mice [6]", "result": "13.24 ± 5.93", "unit": "µg/g"}, {"measurement": "Urinary test Bilirubin: count in category +", "setting": "ICR mice [7]", "result": 2}, {"measurement": "Urinary test Bilirubin: count in category ++", "setting": "ICR mice [7]", "result": 6}, {"measurement": "Urinary test Bilirubin: count in category +++", "setting": "ICR mice [7]", "result": 2}, {"measurement": "Urinary test Glucose: count in category ++", "setting": "ICR mice [7]", "result": 10}, {"measurement": "Urinary test Ketone: count in category ±", "setting": "ICR mice [7]", "result": 3}, {"measurement": "Urinary test Ketone: count in category −", "setting": "ICR mice [7]", "result": 7}, {"measurement": "Urinary test Nitrite: count in category +", "setting": "ICR mice [7]", "result": 4}, {"measurement": "Urinary test Nitrite: count in category −", "setting": "ICR mice [7]", "result": 6}, {"measurement": "Urinary test Occult blood: count in category ++", "setting": "ICR mice [7]", "result": 2}, {"measurement": "Urinary test Occult blood: count in category +++", "setting": "ICR mice [7]", "result": 8}, {"measurement": "Urinary test Protein: count in category −", "setting": "ICR mice [7]", "result": 10}, {"measurement": "Urinary test Specific gravity: count in category ++", "setting": "ICR mice [7]", "result": 1}, {"measurement": "Urinary test Specific gravity: count in category +++", "setting": "ICR mice [7]", "result": 9}, {"measurement": "Urinary test Urobilinogen: count in category +", "setting": "ICR mice [7]", "result": 10}, {"measurement": "Urinary test pH: count in category ±", "setting": "ICR mice [7]", "result": 10}]}]}
